{
  "source": "patent US20120329860A1",
  "about": "“Uses of Beta-Nicotinamide Adenine Dinucleotide” (MEDICAL COLLEGE OF GEORGIA INSTITUTE, INC, priority 2010, published 2012)",
  "key": {"HPAEC monolayers": {"system": "HPAEC monolayers", "test": "Transendothelial electrical resistance (TER) by ECIS in HPAEC monolayers", "format": "cell-based, human", "experimental": "Human pulmonary artery endothial cells (HPAEC) and EBM-2 complete medium were purchased from Lonza (Allendale, N.J.). HPAEC were cultured according to the manufacturer's protocol and utilized at early (3-6) passages.\nThe barrier properties of endothelial cells monolayers were characterized using a highly sensitive electrical cell-substrate impedance sensing (ECIS) instrument to measure transendothelial electrical resistance (TER) as described (Birukova et al., 2004a. Microvasc Res 67(1):64-77; Kolosova et al., 2005, Circ Res 97(2):115-124). The TER data was normalized to the initial voltage."}, "[1]": {"system": "myosin light chain (MLC) phosphorylation", "test": "MLC phosphorylation immunoblot in LPS-treated HPAEC", "format": "cell-based, human", "conditions": "LPS/β-NAD mixture, 4 hrs", "experimental": "Protein extracts were separated by SDS-PAGE, transferred to nitrocellulose membrane and probed with specific antibodies. Horseradish peroxidase-conjugated goat anti-rabbit IgG antibody (Santa Cruz Biotechnology, Santa Cruz, Calif.) was used as the secondary antibody, and immunoreactive proteins were detected using enhanced chemiluminescence detection kit (ECL) according to the manufacturer's protocol (Amersham, Little Chalfont, UK). For quantification, immunoblot data were analyzed using NIH Image 1.63 software. Active Rac1 was determined using G-LISA Rac activation assay according to the manufacturer's recommendations (Cytoskeleton Inc., Denver, Colo.)."}, "[2]": {"system": "pro-inflammatory/anti-inflammatory cytokines gene expression", "test": "qPCR of cytokine gene expression in lungs", "format": "in vivo", "conditions": "LPS/β-NAD vs LPS only mice", "experimental": "Total RNA was prepared from the lung of mouse tissue using RNeasy mini kit (Qiagen, Valencia, Calif.). The mRNA was reverse-transcribed into complementary deoxyribonucleic acid (cDNA) using iScript reagents from Bio-Rad on a programmable thermal cycler (PCR-Sprint, Thermo Electron, Milford, Mass.). 50 ng of cDNA was amplified in each real-time polymerase chain reaction using ABgene reagents (distributed by Fisher Scientific), Bio-Rad myiQ Cycler and Custom-designed primers for genes specific to the mice (Integrated DNA Technologies, Coralville, Iowa). The Reverse transcription reaction was carried out for 25 min at 42° C. and terminated for 5 min at 85° C. Real time PCR was performed by denaturation for 30 sec at 94° C., annealing for 30 sec at 60° C. for a total of 40 cycles. The glyceraldehyde-3-phosphate dehydrogenase (GAPDH) was used to normalize the expression of the target genes."}},
  "note": "Entries after “also recorded” stand apart in the source; their conditions may differ.",
  "data": [
    {"smiles": "NC(=O)C1=CN([C@@H]2O[C@H](COP(=O)(O)OP(=O)(O)OC[C@H]3O[C@@H](n4cnc5c(N)ncnc54)[C@H](O)[C@@H]3O)[C@@H](O)[C@H]2O)C=CC1", "note": "[β-NAD, beta-nicotinamide adenine dinucleotide]", "values": [
      {"measurement": "thrombin-induced endothelial cell permeability (TER)", "setting": "HPAEC monolayers; 100 nM thrombin in mixture with 50 mM b-NAD", "value": "significantly attenuated the thrombin-induced endothelial cell permeability"},
      {"measurement": "decrease in TER from base line", "setting": "HPAEC monolayers; LPS (100 ng/ml) with β-NAD added", "value": "~30", "unit": "%"},
      {"measurement": "PLY-induced loss of monolayer integrity (TER)", "setting": "HPAEC monolayers; PLY in a mixture with 50 mM β-NAD", "value": "failed to produce such drastic effect"},
      {"measurement": "TER of HPAEC monolayers (endothelial barrier function)", "setting": "HPAEC monolayers; b-NAD alone, quiescent HPAEC, 10-100 mM as printed", "value": "positive effect; also recorded: significant initial increase in TER"},
      {"measurement": "β-NAD effect on TER after cytochalasin B", "setting": "HPAEC monolayers; cytochalasin B pretreatment 30 min, then 50 μM β-NAD", "value": "did not increase the TER"},
      {"measurement": "β-NAD effect on TER after nocodazole", "setting": "HPAEC monolayers; nocodazole pretreatment 30 min, then 50 μM β-NAD", "value": "restored endothelial cell barrier integrity"},
      {"measurement": "LPS-stimulated MLC phosphorylation", "setting": "[1]", "value": "significantly inhibited"},
      {"measurement": "anti-inflammatory cytokines (IL-4, IL-10, and IL-13) gene expression in lungs", "setting": "[2]", "value": "elevated"},
      {"measurement": "proinflammatory cytokines (IL-1α, IL-1β, IFN-γ and TNF-α) gene expression in lungs", "setting": "[2]", "value": "substantially or markedly downregulated"}
    ]}
  ]
}
